molecular target: T1, human glucocorticoid receptor (GR) complex (Homo sapiens, UniProt P04150); experiment: Glucocorticoid receptor competitive binding assay (fluorescence polarization); conditions: competition with TAMRA-labeled dexamethasone, result in words only
T1 construct: made in house; host or cells: insect expression system (baculovirus lysate)
T1 sequence (P04150 1-777): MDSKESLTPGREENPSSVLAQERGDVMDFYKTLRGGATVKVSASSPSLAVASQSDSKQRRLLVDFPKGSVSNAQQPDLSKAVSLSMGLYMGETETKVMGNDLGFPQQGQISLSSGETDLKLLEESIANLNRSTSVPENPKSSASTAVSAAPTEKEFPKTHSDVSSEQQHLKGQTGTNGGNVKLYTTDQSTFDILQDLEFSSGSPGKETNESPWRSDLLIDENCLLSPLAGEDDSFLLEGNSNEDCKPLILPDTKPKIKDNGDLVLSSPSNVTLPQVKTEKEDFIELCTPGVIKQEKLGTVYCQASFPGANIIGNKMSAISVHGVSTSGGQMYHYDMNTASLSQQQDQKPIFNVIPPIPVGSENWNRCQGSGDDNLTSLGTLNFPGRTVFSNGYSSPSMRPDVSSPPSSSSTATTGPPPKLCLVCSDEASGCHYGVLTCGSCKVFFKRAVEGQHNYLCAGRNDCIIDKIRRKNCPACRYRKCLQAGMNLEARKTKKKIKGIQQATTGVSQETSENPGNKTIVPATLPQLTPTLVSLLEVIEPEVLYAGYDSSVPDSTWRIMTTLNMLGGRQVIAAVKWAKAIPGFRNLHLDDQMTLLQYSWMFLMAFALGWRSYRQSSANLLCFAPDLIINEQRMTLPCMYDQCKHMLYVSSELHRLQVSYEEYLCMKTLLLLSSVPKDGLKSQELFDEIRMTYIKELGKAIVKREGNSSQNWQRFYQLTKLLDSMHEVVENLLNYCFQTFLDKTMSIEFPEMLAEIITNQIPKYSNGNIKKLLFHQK
Experimental: Compounds of the invention were evaluated for binding to the steroid receptor by a fluorescence polarization competitive binding assay.
The wavelengths for maximum excitation and emission of the fluorescent probe should first be measured. An example of such a probe is rhodamine (TAMRA)-labeled dexamethasone.
The affinity of the probe for the steroid receptor was then determined in a titration experiment. The fluorescence polarization value of the probe in assay buffer was measured on an SLM-8100 fluorometer using the excitation and emission maximum values described above. Aliquots of expression vector lysate were added and fluorescence polarization was measured after each addition until no further change in polarization value was observed. Non-linear least squares regression analysis was used to calculate the dissociation constant of the probe from the polarization values obtained for lysate binding to the probe.
This assay uses fluorescence polarization (FP) to quantitate the ability of test compounds to compete with tetramethyl rhodamine (TAMRA)-labeled dexamethasone for binding to a human glucocorticoid receptor (GR) complex prepared from an insect expression system. The assay buffer was: 10 mM TES, 50 mM KCl, 20 mM Na2MoO4.2H2O, 1.5 mM EDTA, 0.04% w/v CHAPS, 10% v/v glycerol, 1 mM dithiothreitol, pH 7.4. Test compounds were dissolved to 1 mM in neat DMSO and then further diluted to 10× assay concentration in assay buffer supplemented with 10% v/v DMSO. Test compounds were serially diluted at 10× assay concentrations in 10% DMSO-containing buffer in 96-well polypropylene plates. Binding reaction mixtures were prepared in 96-well black Dynex microtiter plates by sequential addition of the following assay components to each well: 15 μL of 10× test compound solution, 85 μL of GR-containing baculovirus lysate diluted 1:170 in assay buffer, and 50 μL of 15 nM TAMRA-labeled dexamethasone. Positive controls were reaction mixtures containing no test compound; negative controls (blanks) were reaction mixtures containing 0.7 μM to 2 μM dexamethasone. […] IC50 values were determined by iterative non-linear curve fitting of the FP signal data to a 4-parameter logistic equation.

How did the “activity in the GR binding assay” value turn out when `CC(C)(CC(O)(Cn1cc(Cl)c(=O)c2cnccc21)C(F)(F)F)c1cccc2c1OCO2` (centres unmarked) [1-(4-Benzo[1,3]dioxol-4-yl-2-hydroxy-4-methyl-2-trifluoromethylpentyl)-3-chloro-1H-[1,6]naphthyridin-4-one] was run?
The value was “potent activity”.

For `CC(C)(CC(O)(Cn1ccc(=O)c2cnccc21)C(F)(F)F)c1cc(-c2cncnc2)cc2c1OCC2` (centres unmarked) [1-[2-Hydroxy-4-methyl-4-(5-pyrimidin-5-yl-2,3-dihydrobenzofuran-7-yl)-2-trifluoromethylpentyl]-1H-[1,6]naphthyridin-4-one], which “activity in the GR binding assay” value is on record?
Its value is “potent activity”.

With `CC(C)(CC(O)(Cn1ccc(=O)c2cnccc21)C(F)(F)F)c1cc(F)ccc1O` (centres unmarked) [1-[4-(5-Fluoro-2-hydroxyphenyl)-2-hydroxy-4-methyl-2-trifluoromethylpentyl]-1H-[1,6]naphthyridin-4-one] as the compound, how does the “activity in the GR binding assay” value read?
Its value is “potent activity”.

Which “activity in the GR binding assay” value does the source give for `COc1ccc(F)cc1C(C)(C)CC(O)(Cn1ccc(=O)c2cnccc21)C(F)(F)F` (centres unmarked) [1-[4-(5-Fluoro-2-methoxyphenyl)-2-hydroxy-4-methyl-2-trifluoromethylpentyl]-1H-[1,6]naphthyridin-4-one] here?
The value was “potent activity”.

`Cc1ccc(F)cc1C(C)(C)CC(O)(Cn1ccc(=O)c2cnccc21)C(F)(F)F` (centres unmarked) [1-[4-(5-Fluoro-2-methylphenyl)-2-hydroxy-4-methyl-2-trifluoromethylpentyl]-1H-[1,6]naphthyridin-4-one] was tested. Which “activity in the GR binding assay” value did it give?
The value was “potent activity”.

For `CC(C)(CC(O)(Cn1cc(Cl)c(=O)c2cnccc21)C(F)(F)F)c1cc(-c2cccnc2)cc2c1OCC2` (centres unmarked) [3-Chloro-1-[2-hydroxy-4-methyl-4-(5-pyridin-3-yl-2,3-dihydrobenzofuran-7-yl)-2-trifluoromethylpentyl]-1H-[1,6]naphthyridin-4-one], which “activity in the GR binding assay” value is on record?
Its value is “potent activity”.

With `CC(C)(CC(O)(Cn1cc(Cl)c(=O)c2cnccc21)C(F)(F)F)c1cc(-c2cncnc2)cc2c1OCC2` (centres unmarked) [3-Chloro-1-[2-hydroxy-4-methyl-4-(5-pyrimidin-5-yl-2,3-dihydrobenzofuran-7-yl)-2-trifluoromethylpentyl]-1H-[1,6]naphthyridin-4-one] as the compound, how does the “activity in the GR binding assay” value read?
Its value is “potent activity”.

With `CC(C)(CC(O)(Cn1cc(Cl)c(=O)c2sccc21)C(F)(F)F)c1cccc2c1OCO2` (centres unmarked) [4-(4-Benzo[1,3]dioxol-4-yl-2-hydroxy-4-methyl-2-trifluoromethylpentyl)-6-chloro-4H-thieno[3,2-b]pyridin-7-one] as the compound, how does the “activity in the GR binding assay” value read?
Its value is “potent activity”.

How did the “activity in the GR binding assay” value turn out when `CC(C)(CC(O)(Cn1ccc(=O)c2sccc21)C(F)(F)F)c1cccc(-c2ccccc2)c1` (centres unmarked) [4-(4-Biphenyl-3-yl-2-hydroxy-4-methyl-2-trifluoromethylpentyl)-4H-thieno[3,2-b]pyridin-7-one] was run?
Its value is “potent activity”.

For `CC(C)(CC(O)(Cn1cc(Cl)c(=O)c2sccc21)C(F)(F)F)c1cccc(-c2ccccc2)c1` (centres unmarked) [4-(4-Biphenyl-3-yl-2-hydroxy-4-methyl-2-trifluoromethylpentyl)-6-chloro-4H-thieno[3,2-b]pyridin-7-one], which “activity in the GR binding assay” value is on record?
Its value is “potent activity”.

For `Cc1cccc(C(C)(C)CC(O)(Cn2ccc(=O)c3sccc32)C(F)(F)F)c1O` (centres unmarked) [4-[2-Hydroxy-4-(2-hydroxy-3-methylphenyl)-4-methyl-2-trifluoromethylpentyl]-4H-thieno[3,2-b]pyridin-7-one], which “activity in the GR binding assay” value is on record?
Its value is “potent activity”.

With `CC(C)(CC(O)(Cn1ccc(=O)c2sccc21)C(F)(F)F)c1cc(-c2cncnc2)ccc1O` (centres unmarked) [4-[2-Hydroxy-4-(2-hydroxy-5-pyrimidin-5-ylphenyl)-4-methyl-2-trifluoromethylpentyl]-4H-thieno[3,2-b]pyridin-7-one] as the compound, how does the “activity in the GR binding assay” value read?
Its value is “potent activity”.

Which “activity in the GR binding assay” value does the source give for `COc1c(C)cccc1C(C)(C)CC(O)(Cn1ccc(=O)c2sccc21)C(F)(F)F` (centres unmarked) [4-[2-Hydroxy-4-(2-methoxy-3-methylphenyl)-4-methyl-2-trifluoromethylpentyl]-4H-thieno[3,2-b]pyridin-7-one] here?
Its value is “potent activity”.

With `COc1ccc(-c2cccnc2)cc1C(C)(C)CC(O)(Cn1ccc(=O)c2sccc21)C(F)(F)F` (centres unmarked) [4-[2-Hydroxy-4-(2-methoxy-5-pyridin-3-ylphenyl)-4-methyl-2-trifluoromethylpentyl]-4H-thieno[3,2-b]pyridin-7-one] as the compound, how does the “activity in the GR binding assay” value read?
The value was “potent activity”.

With `COc1ccccc1C(C)(C)CC(O)(Cn1ccc(=O)c2sccc21)C(F)(F)F` (centres unmarked) [4-[2-Hydroxy-4-(2-methoxyphenyl)-4-methyl-2-trifluoromethylpentyl]-4H-thieno[3,2-b]pyridin-7-one] as the compound, how does the “activity in the GR binding assay” value read?
Its value is “potent activity”.

How did the “activity in the GR binding assay” value turn out when `CC(C)(CC(O)(Cn1ccc(=O)c2sccc21)C(F)(F)F)c1cc(-c2cncnc2)cc2c1OCC2` (centres unmarked) [4-[2-Hydroxy-4-methyl-4-(5-pyrimidin-5-yl-2,3-dihydrobenzofuran-7-yl)-2-trifluoromethylpentyl]-4H-thieno[3,2-b]pyridin-7-one] was run?
The value was “potent activity”.

`CC(C)(CC(O)(Cn1ccc(=O)c2sccc21)C(F)(F)F)c1cccc2c1OCC2` (centres unmarked) [4-[4-(2,3-Dihydrobenzofuran-7-yl)-2-hydroxy-4-methyl-2-trifluoromethylpentyl]-4H-thieno[3,2-b]pyridin-7-one] was tested. Which “activity in the GR binding assay” value did it give?
Its value is “potent activity”.

With `Cc1cccc(C(C)(C)CC(O)(Cn2ccc(=O)c3sccc32)C(F)(F)F)c1OC(F)F` (centres unmarked) [4-[4-(2-Difluoromethoxy-3-methylphenyl)-2-hydroxy-4-methyl-2-trifluoromethylpentyl]-4H-thieno[3,2-b]pyridin-7-one] as the compound, how does the “activity in the GR binding assay” value read?
Its value is “potent activity”.

`COc1c(Br)cccc1C(C)(C)CC(O)(Cn1ccc(=O)c2sccc21)C(F)(F)F` (centres unmarked) [4-[4-(3-Bromo-2-methoxyphenyl)-2-hydroxy-4-methyl-2-trifluoromethylpentyl]-4H-thieno[3,2-b]pyridin-7-one] was tested. Which “activity in the GR binding assay” value did it give?
The value was “potent activity”.

With `COc1ccc(F)cc1C(C)(C)CC(O)(Cn1ccc(=O)c2sccc21)C(F)(F)F` (centres unmarked) [4-[4-(5-Fluoro-2-methoxyphenyl)-2-hydroxy-4-methyl-2-trifluoromethylpentyl]-4H-thieno[3,2-b]pyridin-7-one] as the compound, how does the “activity in the GR binding assay” value read?
The value was “potent activity”.

With `Cc1ccc(F)cc1C(C)(C)CC(O)(Cn1ccc(=O)c2sccc21)C(F)(F)F` (centres unmarked) [4-[4-(5-Fluoro-2-methylphenyl)-2-hydroxy-4-methyl-2-trifluoromethylpentyl]-4H-thieno[3,2-b]pyridin-7-one] as the compound, how does the “activity in the GR binding assay” value read?
The value was “potent activity”.

How did the “activity in the GR binding assay” value turn out when `CC(C)(CC(O)(Cn1cc(Br)c(=O)c2sccc21)C(F)(F)F)c1cccc2c1OCC2` (centres unmarked) [6-Bromo-4-[4-(2,3-dihydrobenzofuran-7-yl)-2-hydroxy-4-methyl-2-trifluoromethylpentyl]-4H-thieno[3,2-b]pyridin-7-one] was run?
Its value is “potent activity”.

How did the “activity in the GR binding assay” value turn out when `COc1ccc(-c2cccnc2)cc1C(C)(C)CC(O)(Cn1cc(Cl)c(=O)c2sccc21)C(F)(F)F` (centres unmarked) [6-Chloro-4-[2-hydroxy-4-(2-methoxy-5-pyridin-3-ylphenyl)-4-methyl-2-trifluoromethylpentyl]-4H-thieno[3,2-b]pyridin-7-one] was run?
The value was “potent activity”.
